We go through five compounds from US10280241B2, “Tackifier compounds and methods of using the same” (Iowa State University Research Foundation, Inc., priority 2012, dated 2019).

Data set [1] is described as follows: Glass transition temperature by DSC. In kind it is physicochemical. The conditions noted are these: measured by DSC. On the procedure: Tack was measured by modifications to the […] standard. On an Instron® load frame, the tackifier to be tested was applied to a glass slide at a thickness of 0.1 mm. The slide was then clamped to a flat surface and, perpendicularly, a type 304 stainless steel probe measuring 5 mm in diameter, with a 90° polished tip was place above the slide. The probe was then lowered at a rate of 0.5 mm sec^−1 and contacted the surface at an average force of 1.5 N. The probe was then held on the surface for 1.0 sec and then raised at a rate of 0.5 mm sec^−1. Tack was measured as the maximum force required to remove the probe from the surface of the tackifier. Tg was measured by DSC.

Data set [2] in a line: Water solubility of tackifiers. Format: physicochemical. The text has this: Altering the identity of the acid anhydride altered tackifier properties.

Turning to `O=C(O)CCCC(=O)O[C@@H]1CO[C@H]2[C@@H]1OC[C@H]2OC(=O)CCCC(=O)O` [5b], the Tg in data set [1] was −26 °C.
`O=C(O)CCC(=O)O[C@@H]1CO[C@H]2[C@@H]1OC[C@H]2OC(=O)CCC(=O)O` [5a] had a Tg in data set [1] of −2 °C.
For `O=C(O)C=CC(=O)O[C@H]1CO[C@H]2[C@@H]1OC[C@H]2OC(=O)C=CC(=O)O` [3c], the Tg in data set [1] worked out at 16 °C.
Turning to `O=C(O)CCCC(=O)O[C@H]1CO[C@H]2[C@@H]1OC[C@H]2OC(=O)CCCC(=O)O` [3b], in data set [2], the “Water solubility (in words)” value is “substantially water-insoluble”. Also, the Tg in data set [1] was −24 °C.
As to `O=C(O)CCC(=O)OC1COC2C(OC(=O)CCC(=O)O)COC12` (stereo not shown) [3a], the “Water solubility (in words)” value in data set [2] is given as “substantially water-soluble”. For the same compound, in data set [1], the Tg was −2 °C.
